Assay results from patent US20070049564A1 (Wyeth, priority 2005, published 2007).
Like-named read-outs stand apart in the source and are kept apart here.

Tests used:
E. coli GC 2231 = test: MIC, broth microdilution; details: Escherichia coli
E. coli GC 4559 = test: MIC, broth microdilution; details: Escherichia coli
E. coli GC 2232 = test: MIC, broth microdilution; details: Escherichia coli
S. epidermidis GC 4935 = test: MIC, broth microdilution; details: Staphylococcus epidermidis
S. aureus GC 1131 = test: MIC, broth microdilution; details: Staphylococcus aureus
E. coli GC 2234 = test: MIC, broth microdilution; details: Escherichia coli
S. pneumoniae+ GC 4465 = test: MIC, broth microdilution; details: Streptococcus pneumoniae
S. pneumoniae* GC 4465 = test: MIC, broth microdilution; details: Streptococcus pneumoniae
E. coli GC 4560 = test: MIC, broth microdilution; details: Escherichia coli
S. aureus GC 4536 = test: MIC, broth microdilution; details: Staphylococcus aureus
S. aureus GC 6467 = test: MIC, broth microdilution; details: Staphylococcus aureus
Staph. aureus Smith = test: In vivo activity (oral, iv; ED50) against Staph. aureus Smith in mice
Method: Representative examples of compounds of Formula I were tested for the oral efficacy using S. aureus Smith in mice.

P. aeruginosa GC 2214 = test: MIC, broth microdilution; details: Pseudomonas aeruginosa
E. faecalis GC 2242 = test: MIC, broth microdilution; details: Enterococcus faecalis
Method: (§1) Antimicrobial susceptibility testing. The in vitro activities of the antibiotics are determined by the broth microdilution method as recommended by the National Committee for Clinical Laboratory Standards (NCCLS) (1). Mueller-Hinton II broth (MHBII)(BBL Cockeysville, Md.) is the medium employed in the testing procedures. Microtiter plates containing serial dilutions of each antimicrobial agent are inoculated with each organism to yield the appropriate density (10^5 CFU/ml) in a 100 μl final volume. The plates are incubated for 18-22 hours at 35° C. in ambient air.
Representative compounds were first incubated in mouse serum for an hour prior to the in vitro testing against a panel of selected gram-positive and gram-negative bacteria strains. All compounds were also pre-incubated in water for an hour prior to testing as control. Representative compounds of Formula I were incubated in human serum prior to MIC determination.

E. faecalis GC 2267 = test: MIC, broth microdilution; details: Enterococcus faecalis
S. aureus GC 2216 = test: MIC, broth microdilution; details: Staphylococcus aureus
E. coli GC 6465 = test: MIC, broth microdilution; details: Escherichia coli
Method: as §1
Representative compounds were first incubated in mouse serum for an hour prior to the in vitro testing against a panel of selected gram-positive and gram-negative bacteria strains. All compounds were also pre-incubated in water for an hour prior to testing as control.

E. coli GC 2272 = test: MIC, broth microdilution; details: Escherichia coli
S. aureus GC 6466 = test: MIC, broth microdilution; details: Staphylococcus aureus
E. coli GC 2203 = test: MIC, broth microdilution; details: Escherichia coli
[1] = read-out: MINIMAL INHIBITORY CONCENTRATION MIC, pre-incubated in Human Serum
[2] = read-out: MINIMAL INHIBITORY CONCENTRATION MIC, pre-incubated in Mouse Serum
[3] = read-out: MINIMAL INHIBITORY CONCENTRATION MIC, pre-incubated in Water

CCC(C)(C)C(=O)OCOC(=O)N(CC(=O)Nc1cc(N(C)C)c2c(c1O)C(=O)C1=C(O)[C@]3(O)C(=O)C(C(N)=O)=C(O)[C@@H](N(C)C)[C@@H]3C[C@@H]1C2)C(C)(C)C [Example 44, ({[(2-{[(5aR,6aS,7S,10aS)-9-(aminocarbonyl)-4,7-bis(dimethylamino)-1,8,10a,11-tetrahydroxy-10,12-dioxo-5,5a,6,6a,7,10,10a,12-octahydrotetracen-2-yl]amino}-2-oxoethyl)(tert-butyl)amino]carbonyl}oxy)methyl 2,2-dimethylbutanoate]
4 mg/kg: ED50 (Staph. aureus Smith; Staphylococcus aureus, in Mus musculus, po, read-out: ED50 SOD (Staph aureus Smith)) | ED50 (Staph. aureus Smith; Staphylococcus aureus, in Mus musculus, po, read-out: ED50 Staph Smith SOD)
> 64 µg/mL: MIC (E. coli GC 2231; GC2231, read-out: MINIMAL INHIBITORY CONCENTRATION MIC, pre-incubated in Human Serum) | MIC (E. coli GC 2231; GC2231, read-out: MINIMAL INHIBITORY CONCENTRATION MIC, pre-incubated in Water) | MIC (E. coli GC 4559; GC4559, read-out: MINIMAL INHIBITORY CONCENTRATION MIC, pre-incubated in Human Serum) | MIC (E. coli GC 4559; GC4559, read-out: MINIMAL INHIBITORY CONCENTRATION MIC, pre-incubated in Water) | MIC (E. coli GC 2232; GC2232, read-out: MINIMAL INHIBITORY CONCENTRATION MIC, pre-incubated in Human Serum) | MIC (E. coli GC 2232; GC2232, read-out: MINIMAL INHIBITORY CONCENTRATION MIC, pre-incubated in Water) | MIC (E. coli GC 2234; GC2234, read-out: MINIMAL INHIBITORY CONCENTRATION MIC, pre-incubated in Human Serum) | MIC (E. coli GC 2234; GC2234, read-out: MINIMAL INHIBITORY CONCENTRATION MIC, pre-incubated in Water) | MIC (P. aeruginosa GC 2214; GC2214, read-out: MINIMAL INHIBITORY CONCENTRATION MIC, pre-incubated in Human Serum) | MIC (P. aeruginosa GC 2214; GC2214, read-out: MINIMAL INHIBITORY CONCENTRATION MIC, pre-incubated in Mouse Serum) | MIC (P. aeruginosa GC 2214; GC2214, read-out: MINIMAL INHIBITORY CONCENTRATION MIC, pre-incubated in Water) | MIC (E. coli GC 6465; GC6465, read-out: MINIMAL INHIBITORY CONCENTRATION MIC, pre-incubated in Human Serum) | MIC (E. coli GC 6465; GC6465, read-out: MINIMAL INHIBITORY CONCENTRATION MIC, pre-incubated in Water) | MIC (E. coli GC 2272; GC2272, read-out: MINIMAL INHIBITORY CONCENTRATION MIC, pre-incubated in Human Serum) | MIC (E. coli GC 2272; GC2272, read-out: MINIMAL INHIBITORY CONCENTRATION MIC, pre-incubated in Water) | MIC (E. coli GC 2203; GC2203, read-out: MINIMAL INHIBITORY CONCENTRATION MIC, pre-incubated in Human Serum) | MIC (E. coli GC 2203; GC2203, read-out: MINIMAL INHIBITORY CONCENTRATION MIC, pre-incubated in Water)
1 µg/mL: MIC (S. pneumoniae* GC 4465; [2])
2 µg/mL: MIC (E. coli GC 2231; GC2231, read-out: MINIMAL INHIBITORY CONCENTRATION MIC, pre-incubated in Mouse Serum) | MIC (E. coli GC 2232; GC2232, read-out: MINIMAL INHIBITORY CONCENTRATION MIC, pre-incubated in Mouse Serum) | MIC (S. epidermidis GC 4935; GC4935, read-out: MINIMAL INHIBITORY CONCENTRATION MIC, pre-incubated in Mouse Serum) | MIC (S. aureus GC 1131; GC1131, read-out: MINIMAL INHIBITORY CONCENTRATION MIC, pre-incubated in Human Serum) | MIC (S. aureus GC 1131; GC1131, read-out: MINIMAL INHIBITORY CONCENTRATION MIC, pre-incubated in Mouse Serum) | MIC (E. coli GC 2234; GC2234, read-out: MINIMAL INHIBITORY CONCENTRATION MIC, pre-incubated in Mouse Serum) | MIC (S. pneumoniae* GC 4465; [1]) | MIC (S. pneumoniae* GC 4465; [3]) | MIC (E. coli GC 4560; GC4560, read-out: MINIMAL INHIBITORY CONCENTRATION MIC, pre-incubated in Mouse Serum) | MIC (S. aureus GC 4536; GC4536, read-out: MINIMAL INHIBITORY CONCENTRATION MIC, pre-incubated in Human Serum) | MIC (S. aureus GC 4536; GC4536, read-out: MINIMAL INHIBITORY CONCENTRATION MIC, pre-incubated in Mouse Serum) | MIC (S. aureus GC 6467; GC6467, read-out: MINIMAL INHIBITORY CONCENTRATION MIC, pre-incubated in Human Serum) | MIC (S. aureus GC 6467; GC6467, read-out: MINIMAL INHIBITORY CONCENTRATION MIC, pre-incubated in Mouse Serum) | MIC (E. faecalis GC 2242; GC2242, read-out: MINIMAL INHIBITORY CONCENTRATION MIC, pre-incubated in Mouse Serum) | MIC (E. faecalis GC 2267; GC2267, read-out: MINIMAL INHIBITORY CONCENTRATION MIC, pre-incubated in Mouse Serum) | MIC (S. aureus GC 2216; GC2216, read-out: MINIMAL INHIBITORY CONCENTRATION MIC, pre-incubated in Human Serum) | MIC (S. aureus GC 2216; GC2216, read-out: MINIMAL INHIBITORY CONCENTRATION MIC, pre-incubated in Mouse Serum) | MIC (S. aureus GC 2216; GC2216, read-out: MINIMAL INHIBITORY CONCENTRATION MIC, pre-incubated in Water) | MIC (E. coli GC 2272; GC2272, read-out: MINIMAL INHIBITORY CONCENTRATION MIC, pre-incubated in Mouse Serum) | MIC (S. aureus GC 6466; GC6466, read-out: MINIMAL INHIBITORY CONCENTRATION MIC, pre-incubated in Human Serum) | MIC (S. aureus GC 6466; GC6466, read-out: MINIMAL INHIBITORY CONCENTRATION MIC, pre-incubated in Mouse Serum) | MIC (S. aureus GC 6466; GC6466, read-out: MINIMAL INHIBITORY CONCENTRATION MIC, pre-incubated in Water) | MIC (E. coli GC 2203; GC2203, read-out: MINIMAL INHIBITORY CONCENTRATION MIC, pre-incubated in Mouse Serum)
8 µg/mL: MIC (E. coli GC 6465; GC6465, read-out: MINIMAL INHIBITORY CONCENTRATION MIC, pre-incubated in Mouse Serum)
0.75 mg/kg: ED50 (Staph. aureus Smith; Staphylococcus aureus, in Mus musculus, iv, read-out: ED50 SIV (Staph aureus Smith)) | ED50 (Staph. aureus Smith; iv, read-out: ED50 Staph Smith SIV)
4 µg/mL: MIC (E. coli GC 4559; GC4559, read-out: MINIMAL INHIBITORY CONCENTRATION MIC, pre-incubated in Mouse Serum) | MIC (S. epidermidis GC 4935; GC4935, read-out: MINIMAL INHIBITORY CONCENTRATION MIC, pre-incubated in Human Serum) | MIC (S. epidermidis GC 4935; GC4935, read-out: MINIMAL INHIBITORY CONCENTRATION MIC, pre-incubated in Water) | MIC (S. aureus GC 1131; GC1131, read-out: MINIMAL INHIBITORY CONCENTRATION MIC, pre-incubated in Water) | MIC (S. pneumoniae+ GC 4465; [1]) | MIC (S. pneumoniae+ GC 4465; [2]) | MIC (S. pneumoniae+ GC 4465; [3]) | MIC (E. coli GC 4560; GC4560, read-out: MINIMAL INHIBITORY CONCENTRATION MIC, pre-incubated in Human Serum) | MIC (E. coli GC 4560; GC4560, read-out: MINIMAL INHIBITORY CONCENTRATION MIC, pre-incubated in Water) | MIC (S. aureus GC 4536; GC4536, read-out: MINIMAL INHIBITORY CONCENTRATION MIC, pre-incubated in Water) | MIC (S. aureus GC 6467; GC6467, read-out: MINIMAL INHIBITORY CONCENTRATION MIC, pre-incubated in Water) | MIC (E. faecalis GC 2242; GC2242, read-out: MINIMAL INHIBITORY CONCENTRATION MIC, pre-incubated in Human Serum) | MIC (E. faecalis GC 2242; GC2242, read-out: MINIMAL INHIBITORY CONCENTRATION MIC, pre-incubated in Water) | MIC (E. faecalis GC 2267; GC2267, read-out: MINIMAL INHIBITORY CONCENTRATION MIC, pre-incubated in Human Serum) | MIC (E. faecalis GC 2267; GC2267, read-out: MINIMAL INHIBITORY CONCENTRATION MIC, pre-incubated in Water)
